According to ChEMBL document CHEMBL4765227, “Hit to lead optimization of a series of N-[4-(1,3-benzothiazol-2-yl)phenyl]acetamides as monoacylglycerol lipase inhibitors with potential anticancer activity” (Eur J Med Chem, 2016):
One block for each compound: values may come before it.

Assays:
Monoglyceride lipase [1] = molecular target: T1, Monoglyceride lipase (Homo sapiens, UniProt Q99685); experiment: Inhibition of human MAGL
T1 sequence (Q99685 whole entry): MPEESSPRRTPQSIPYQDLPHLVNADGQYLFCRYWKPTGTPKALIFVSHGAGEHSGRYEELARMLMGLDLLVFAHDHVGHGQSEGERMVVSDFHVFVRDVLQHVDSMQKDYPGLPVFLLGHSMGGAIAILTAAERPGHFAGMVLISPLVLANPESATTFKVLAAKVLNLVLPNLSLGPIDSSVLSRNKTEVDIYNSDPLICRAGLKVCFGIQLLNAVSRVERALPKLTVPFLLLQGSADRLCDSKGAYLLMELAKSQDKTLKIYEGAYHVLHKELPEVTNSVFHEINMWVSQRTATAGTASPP

Monoglyceride lipase [2] = molecular target: T1, Monoglyceride lipase; experiment: Inhibition of human MAGL transfected in human HEK293T cells assessed as reduction in ABPP binding by competitive binding assay; assay type: cell-based
Monoglyceride lipase [3] = molecular target: T1, Monoglyceride lipase; experiment: Inhibition of MAGL (unknown origin)
Monoglyceride lipase [4] = molecular target: T1, Monoglyceride lipase; experiment: Inhibition of human MAGL using 4-Nitrophenylacetate as substrate

Compound: O=C(N1CCC(C(c2ccc3c(c2)OCO3)c2ccc3c(c2)OCO3)CC1)n1cncn1
IC50 (Monoglyceride lipase [1]): < 0.4 nM

Compound: O=C(OC(C(F)(F)F)C(F)(F)F)N1CCC(C(O)(c2ccc3c(c2)OCO3)c2ccc3c(c2)OCO3)CC1
IC50 (Monoglyceride lipase [2]): 5.9 nM

Compound: CCCCNC(=O)Oc1ccc(C2=NCCS2)cc1
IC50 (Monoglyceride lipase [3]): 31000 nM

Compound: COc1nn(-c2ccc(NC(=O)OCc3ccccc3)c(C)c2)c(=O)o1
IC50 (Monoglyceride lipase [4]): 424 nM

Further lines, results first:

IC50 (Monoglyceride lipase [4]): > 100000 nM
Compound: O=C(CNc1ccc([N+](=O)[O-])cc1)Nc1ccc(-c2nc3ccccc3s2)cc1

IC50 (Monoglyceride lipase [3]): 0.9 nM
Compound: CN(C)C(=O)n1nnc(Cc2ccc(-c3ccccc3)cc2)n1

IC50 (Monoglyceride lipase [3]): 28000 nM
Compound: O=C(Nc1cccc(-c2ccccc2)c1)OC1CCCCC1
